Test results from patent US20190054109A1, “An antiviral composition and a method for application thereof” (ALLA CHEM, LLC, priority 2017, published 2019).
pEC50: −log10 of the molar value.

How the values were obtained:
[1] = test system: gT1b NS5B HCV; assay: Anti-HCV activity in Huh7 cell line stably transfected with an HCV replicon; type: cell-based, hepatitis C virus (HCV) genotype 1b
Protocol: Evaluation of anti-HCV activity and cytotoxicity for compositions comprising the prodrug of formula 1.1 and Sovaldi®. The antiviral activity of tested compositions comprising the prodrug was evaluated using an Huh7 human hepatocellular carcinoma cell line stably transfected with an HCV replicon. A cell suspension in a complete culture medium (DMEM 1×, Cellgro; cat. #10-013-CV) was transferred into 96-well plates (50 μl per well) with a final density of 7500 cells per well. The serial dilutions of tested prodrugs were prepared from a fresh 200-fold generic solution in DMSO with 11 concentration points and 3-fold dilution for each step starting from 20 nM in a complete medium and were used as 2-fold solutions in two replicates. Minimum 4 hours after planting the cells, 50 μl of serial prodrug dilutions was added to each well. The final prodrug concentration varied from 10 nM to 0.1 pM and that of DMSO, 0.5%. The plate with cells was incubated for 3 days at 37° C. under humidified 5% CO2. Upon completion of incubation, the medium was removed by turning the plate over and shaking it carefully. The cells were fixed for one minute with 100 μl of a 1:1 acetone:methanol solution, washed 3 times with a phosphate buffer (PBS), and blocked for 1 h at room temperature using a 10% fetal bovine serum (FBS) in PBS (150 μl/well). The cells were washed 3 times with PBS and incubated for 2 h at 37° C. with anti-NS5B HCV antibodies (100 μl/well) using Affinity BioReagents (cat. # MA1-080) and diluting the generic solution (1 mg/ml) in a ratio of 1:4000 in 10% FBS-PBS. The cells were washed 3 times with PBS and developed by an OPD solution (100 μl/well) using for each plate one OPD tablet dissolved in a citrate/phosphate buffer (12 ml)), whereto 5 μl of 30% H2O2 was added, for 30 minutes in the dark at room temperature. The reaction was stopped by 2N H2SO4 (100 μl/well), and OD490 was measured using the multifunctional reader Victor^3 V 1420 (Perkin Elmer). The values of EC50 for tested prodrugs were measured from an activity curve plotted using the GraphPad Prizm software.

[2] = physchem; settings: simulated gi fluid
Protocol: Evaluation of stability in biological matrix for compositions comprising the prodrug of formula 1.1. Initial compositions comprising the prodrug of formula 1.1 (the tested compounds) were prepared with a concentration of 10 mM in DMSO. From said compositions, 100-fold working solutions were prepared with a concentration of 100 μM in a mixture of acetonitrile: water with a volumetric ratio of 1:1.
The tested composition comprising the prodrug of formula 1.1 in a final concentration of 1 μM was incubated in artificial gastric juice (0.2% NaCl in 0.7% v/v HCl) and artificial intestinal juice (0.05M KH2PO4, pH 6.75). The incubation was performed in a Vortemp56 shaking incubator at 37° C. with stirring at a rate of 300 rev/min. […] The samples were then centrifuged, and the supernatant (150 μl) was sampled for analysis […]. The incubation was performed in two replicates, with each sample measured twice.
Samples were analyzed using an HPLC-MS/MS technique developed for each tested prodrug, wherein the chromatographic system 1290 Infinity II (Agilent Technologies) was combined with the tandem mass spectrometer QTRAP5500 (AB Sciex). When developing conditions for mass-spectrometric detection, the solutions of tested compounds in a mixture of acetonitrile-water (1:1) with a concentration of 100 ng/ml were injected directly into the mass spectrometer using a syringe pump with electrospray ionization carried out in a positive ion mode. Scanning in a total ion current mode (MS1) allowed us to identify a molecular ion for each compound, and basic product ions were recorded in MS2 mode. Then, to attain maximum sensitivity, the MS/MS technique was optimized in MRM mode. In quantitative chromatogram processing, the most intensive MRM transition was used for the analyte and the internal standard. Separation was carried out by means of linear gradient elution chromatography on a YMC Triart C18 column (50×2 mm, 1.9 μm) in a mobile phase consisting of 0.1% formic acid in water and 0.1% formic acid in acetonitrile. Tolbutamide (Fluka) was used as the internal standard.
Half-life (T1/2) was found from the kinetics of tested prodrug elimination in an antiviral composition during incubation in a biological matrix. The computations were based on the values of chromatographic peak areas for compounds in test samples normalized to the internal standard signal. From linear dependence of log normalized areas of chromatographic peaks on time, the constant of elimination rate was calculated (k is linear section slope).

[3] = Hepatitis C virus, Huh-7, gT1b HCV replicon in Huh7, 10% FBS

In the case of `C[C@H](N[P@](=O)(OC[C@H]1O[C@@H](n2ccc(=O)[nH]c2=O)[C@](C)(F)[C@@H]1O)Oc1ccccc1)C(=O)OC1CCC1` [Prodrug 1.1, cyclobutyl (S)-2-{(S)-[(2R,3R,4R,5R)-5-(3,4-dihydro-2,4-dioxo-2H-pyrimidin-1-yl)-3-hydroxy-4-methyl-4-fluoro-tetrahydro-furan-2-ylmethoxy]-phenoxy-phosphorylamino}-propanoate], the pEC50 [1, 3] was 7.57 to 7.82, the EC90 [1, 3] was 128 nM and the “activity against gT1b HCV relative to Sovaldi” value ([1]; comparison of EC50/EC90) was “more than three times more active”. For the same molecule, the half-life at 1 μM ([2]; T1/2 SGF, artificial gastric juice, 37° C.) was 12.7 to 15 h and the half-life at 1 μM ([2]; pH 6.75) was > 24 h.
